Results from patent publication US11345711B2, “8,9-dihydroimidazo[1,2-a]pyrimido[5,4-e]pyrimidin-5(6H)-ones” (IMPACT THERAPEUTICS (SHANGHAI), INC, priority 2016, dated 2022).
Counter-ions that a name gives are not always drawn. Like-named read-outs stand apart in the source and are kept apart here.

Assays:
LoVo cells = assay: MTT based cell viability assay on LoVo cells; details: Homo sapiens, LoVo, 72 h, 3 d, read-out: IC50, growth inhibition of LoVo cells
Method: Determination of the cell growth inhibiting activity of 6-(2-chlorophenyl)-2-((4-(4-methylpiperazin-1-yl)phenyl)amino)-8,9-dihydroimidazo[1,2-a]pyrimido[5,4-e]pyrimidin-5(6H)-one and analogs on LoVo cells using a MTT based cell viability assay
(§1) The thawed LoVo cells were cultured and passaged to the third generation, and the growth state was good and the confluence was about 90%, which began to be used in the experiment. The LoVo cells were digested with trypsin, centrifuged at 800 rpm for 5 min, the supernatant was discarded, resuspended with fresh culture medium, and counted. 6000 Cells are seeded to each well of a 96-well plate. The cells are incubated at 37° C. in a 5% CO2 cell culture incubator overnight. The tested sample (including the tested compound and the reference compound AZD1775) was diluted continuously to 8 concentrations (the last concentration was negative control of DMSO) with a 1:3 and 1:10 dilution in DMSO respectively: 10 μM, 3.3 μM, 1 μM, 0.33 μM, 0.1 μM, 0.033 μM, 0.01 μM, 0 μM (the final concentration of DMSO was 1%). 5 μL of each concentration was added to 120 μL of culture medium (25 times diluted), and the mixture was shaken well. The overnight cells were taken and the culture medium was removed, 195 μL of fresh culture medium was added to each well, and 5 μL of diluted culture medium containing the corresponding concentration of the tested sample was added respectively, and the culture plate was then placed in the 5% CO2 cell culture incubator at 37° C. for 3 d. After removing the original solution and adding 100 μL of fresh serum-free DMEM culture medium containing MTT (0.5 mg/mL) per well, the culture was continued. The original solution was removed after 4 hrs and 100 μl DMSO was added to each well. The 96-well cell culture plates were shaken away from light for 10 min and readed in a multifunctional reader at 552/630/690 nm to give absorption values (OD values). The data were analyzed using a commercial graphic software (Graph Pad Prism 5.0) and the inhibitory activity of the compound on cell proliferation was plotted in terms of cell survival and compound concentration. The IC50 values were fitted by the S-shaped dose-response curve equation as follows: Y=100/(1+10^(Log C-Log IC50)), where C was the concentration of testing compounds.

Wee1 (h) = Wee1 (h) (Homo sapiens, UniProt P30291); assay: Wee1 kinase (h) detection method, [γ-33P]-ATP filter assay; format: biochemical
Method: Determination of the inhibitory effect of 6-(2-chlorophenyl)-2-((4-(4-methylpiperazin-1-yl)phenyl)amino)-8,9-dihydroimidazo[1,2-a]pyrimido[5,4-e]pyrimidin-5(6H)-one and Analogs on the Enzyme Activity of Wee1 Kinase by Using the Wee1 Kinase (h) Detection Method
Then the stock solution of all compounds under test with 50× concentration in 100% DMSO was added to make the final concentration of 10/1/0.1/0.01 μM, and then mixed the mixture well. The reaction is initiated by the addition of the Mg/ATP mix. After incubation for 40 minutes at room temperature, the reaction is stopped by the addition of phosphoric acid to a concentration of 0.5%. […] Each compound sample is duplicated in duplicate. The negative control was lack of all the components of Wee1 enzyme, and the positive was addition of 30% phosphoric acid to terminate the reaction. The Wee1 inhibitor AZD1775 was detected at 10 μM at the same experiment condition.

NCI-H1299 cells = assay: MTT based cell viability assay on NCI-H1299 cells; details: Homo sapiens, read-out: IC50, growth inhibition of NCI-H1299 cells
Method: Determination of the cell growth inhibiting activity of 6-(2-chlorophenyl)-2-((4-(4-methylpiperazin-1-yl)phenyl)amino)-8,9-dihydroimidazo[1,2-a]pyrimido[5,4-e]pyrimidin-5(6H)-one and analogs on NCI-H1299 cells using a MTT based cell viability assay
as §1, with “NCI-H1299” for “LoVo”, “group,” for “medium,”, “1000” for “6000”, “1‰).” for “1%).”, “C−Log” for “C-Log”

Chain of Wee1 (h) (P30291 whole entry): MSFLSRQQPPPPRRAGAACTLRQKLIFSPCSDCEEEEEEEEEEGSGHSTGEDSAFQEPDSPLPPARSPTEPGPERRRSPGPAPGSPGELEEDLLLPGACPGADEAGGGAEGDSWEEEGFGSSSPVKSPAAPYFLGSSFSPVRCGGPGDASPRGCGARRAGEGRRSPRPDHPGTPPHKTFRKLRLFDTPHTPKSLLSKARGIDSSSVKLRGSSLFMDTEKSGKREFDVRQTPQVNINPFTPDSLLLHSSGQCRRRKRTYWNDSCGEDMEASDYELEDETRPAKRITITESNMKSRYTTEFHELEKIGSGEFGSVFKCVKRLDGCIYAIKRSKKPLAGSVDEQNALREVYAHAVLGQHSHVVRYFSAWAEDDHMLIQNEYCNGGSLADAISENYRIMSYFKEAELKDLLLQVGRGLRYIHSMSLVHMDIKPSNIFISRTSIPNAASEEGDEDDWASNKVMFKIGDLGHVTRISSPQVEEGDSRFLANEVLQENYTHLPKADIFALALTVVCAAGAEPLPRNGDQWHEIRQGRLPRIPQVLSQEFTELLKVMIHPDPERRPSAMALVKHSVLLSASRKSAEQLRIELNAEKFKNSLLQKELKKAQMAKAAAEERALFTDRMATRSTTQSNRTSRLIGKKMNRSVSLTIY

| Compound | IC50 (LoVo cells) [nM] | Inh. (%) of Wee1 kinase enzyme activity (Wee1 (h); C 0.01 μm compound) [%] | Inh. (%) of Wee1 kinase enzyme activity (Wee1 (h); C 0.1 μm compound) [%] | Inh. (%) of Wee1 kinase enzyme activity (Wee1 (h); C 1 μm compound) [%] | IC50 (NCI-H1299 cells; NCI-H1299 cells) [nM] | IC50 (NCI-H1299 cells; NCI-H1299, NCI-H1299 cells) [nM] |
| --- | --- | --- | --- | --- | --- | --- |
| CC(C)N1Cc2cc(Nc3ncc4c(n3)N3CCN=C3N(c3c(F)cccc3Cl)C4=O)ccc2C2(CC2)C1 [Example 58, 6-(2-Chloro-6-fluorophenyl)-2-((2′-isopropyl-2′,3′-dihydro-1′H-spiro[cyclopropane-1,4′-isoquinolin]-7′-yl)amino)-8,9-dihydroimidazo[1,2-a]pyrimido[5,4-e]pyrimidin-5(6H)-one] | 90 | 46 | 92 | 100 | 426 |  |
| Cc1cc(Nc2ncc3c(n2)N2CCN=C2N(c2c(F)cccc2Cl)C3=O)ccc1N1C[C@@H](C)N(C)[C@@H](C)C1 [Example 51, 6-(2-Chloro-6-fluorophenyl)-2-((3-methyl-4-((3S,5R)-3,4,5-trimethylpiperazin-1-yl)phenyl)amino)-8,9-dihydroimidazo[1,2-a]pyrimido[5,4-e]pyrimidin-5(6H)-one] | 105 | 66 | 86 | 96 |  | 165 |
| CN1CCN(c2ccc(Nc3ncc4c(n3)N3CCN=C3N(c3ncccn3)C4=O)cc2)CC1 [Example 92, 6-(Pyrimidin-2-yl)-2-((4-(4-methylpiperazin-1-yl)phenyl)amino)-8,9-dihydroimidazo[1,2-a]pyrimido[5,4-e]pyrimidin-5(6H)-one] | > 100000 |  |  | 1 | > 10000 |  |
| CN1CCN(c2ccc(Nc3ncc4c(n3)N3CCN=C3N(c3cccs3)C4=O)cc2)CC1 [Example 23, 2-((4-(4-Methylpiperazin-1-yl)phenyl)amino)-6-(thiophen-2-yl)-8,9-dihydroimidazo[1,2-a]pyrimido[5,4-e]pyrimidin-5(6H)-one] | > 3000 |  |  | 22 | > 10000 |  |
| Cc1cc(Nc2ncc3c(n2)N2CCN=C2N(c2c(F)cccc2Cl)C3=O)ccc1N1CCN(C)CC1 [Example 50, 6-(2-Chloro-6-fluorophenyl)-2-((3-methyl-4-(4-methylpiperazin-1-yl)phenyl)amino)-8,9-dihydroimidazo[1,2-a]pyrimido[5,4-e]pyrimidin-5(6H)-one] | 58.9 | 62 | 95 | 100 |  | 229 |
| COc1cc(Nc2ncc3c(n2)N2CCN=C2N(c2c(Cl)cccc2Cl)C3=O)cc(C)c1N1CCN(C)CC1 [Example 159, 6-(2,6-Dichlorophenyl)-2-((3-methoxy-5-methyl-4-(4-methylpiperazin-1-yl)phenyl)amino)-8,9-dihydroimidazo[1,2-a]pyrimido[5,4-e]pyrimidin-5(6H)-one] | 52.2 |  |  |  | 56.8 |  |
| CNCc1cc(Nc2ncc3c(n2)N2CCN=C2N(c2c(Cl)cccc2Cl)C3=O)ccc1N1CCOCC1 [Example 184, 6-(2,6-Dichlorophenyl)-2-((3-((methylamino)methyl)-4-morpholinophenyl)amino)-8,9-dihydroimidazo[1,2-a]pyrimido[5,4-e]pyrimidin-5(6H)-one] | 1490 |  |  |  | 879 |  |

The remaining lines, values ahead:

| IC50 (LoVo cells) [nM] | Inh. (%) of Wee1 kinase enzyme activity (Wee1 (h); C 0.01 μm compound) [%] | Inh. (%) of Wee1 kinase enzyme activity (Wee1 (h); C 0.1 μm compound) [%] | Inh. (%) of Wee1 kinase enzyme activity (Wee1 (h); C 1 μm compound) [%] | IC50 (NCI-H1299 cells; NCI-H1299 cells) [nM] | IC50 (NCI-H1299 cells; NCI-H1299, NCI-H1299 cells) [nM] | Compound |
| --- | --- | --- | --- | --- | --- | --- |
| 76.9 |  |  |  | 89.9 |  | Cc1cc(Nc2ncc3c(n2)N2CCN=C2N(c2c(C)cccc2Cl)C3=O)cc(F)c1N1CCC(N(C)C)CC1 [Example 170, 6-(2-Chloro-6-methylphenyl)-2-((4-(4-(dimethylamino)piperidin-1-yl)-3-fluoro-5-methylphenyl)amino)-8,9-dihydroimidazo[1,2-a]pyrimido[5,4-e]pyrimidin-5(6H)-one] |
| > 100000 |  |  | 13 | > 10000 |  | CN1CCN(c2ccc(Nc3ncc4c(n3)N3CCN=C3N(c3cccc(Cl)c3)C4=O)cc2)CC1 [Example 86, 6-(3-Chlorophenyl)-2-((4-(4-methylpiperazin-1-yl)phenyl)amino)-8,9-dihydroimidazo[1,2-a]pyrimido[5,4-e]pyrimidin-5(6H)-one] |
| 262 | 27 | 82 | 100 | 287 |  | CC(C)N1[C@H](C)CN(c2ccc(Nc3ncc4c(n3)N3CCN=C3N(c3c(F)cccc3Cl)C4=O)cc2)C[C@@H]1C [Example 35, 6-(2-Chloro-6-fluorophenyl)-2-((4-((3S,5R)-4-isopropyl-3,5-dimethylpiperazin-1-yl)phenyl)amino)-8,9-dihydroimidazo[1,2-a]pyrimido[5,4-e]pyrimidin-5(6H)-one] |
| > 100000 |  |  | 2 | > 10000 |  | CN1CCN(c2ccc(Nc3ncc4c(n3)N3CCN=C3N(c3cccnc3)C4=O)cc2)CC1 [Example 98, 6-(Pyridin-3-yl)-2-((4-(4-methylpiperazin-1-yl)phenyl)amino)-8,9-dihydroimidazo[1,2-a]pyrimido[5,4-e]pyrimidin-5(6H)-one] |
| 59.5 |  |  |  | 83.1 |  | Cc1cc(Nc2ncc3c(n2)N2CCN=C2N(c2c(Cl)cccc2Cl)C3=O)ccc1N1CCNCC1 [Example 177, 6-(2,6-Dichlorophenyl)-2-((3-methyl-4-(piperazin-1-yl)phenyl)amino)-8,9-dihydroimidazo[1,2-a]pyrimido[5,4-e]pyrimidin-5(6H)-one] |
| 37.3 |  |  |  | 42.9 |  | Cc1cc(Nc2ncc3c(n2)N2CCN=C2N(c2c(Cl)cccc2Cl)C3=O)ccc1N1CCC(N(C)C)CC1 [Example 141, 6-(2,6-Dichlorophenyl)-2-((4-(4-(dimethylamino)piperidin-1-yl)-3-methylphenyl)amino)-8,9-dihydroimidazo[1,2-a]pyrimido[5,4-e]pyrimidin-5(6H)-one] |
| 42.4 |  |  |  | 154 |  | CN1CCN(c2ccc(Nc3ncc4c(n3)N3CCN=C3N(c3c(Cl)cccc3Cl)C4=O)cc2Cl)CC1 [Example 186, 6-(2,6-Dichlorophenyl)-2-((3-chloro-4-(4-methylpiperazin-1-yl)phenyl)amino)-8,9-dihydroimidazo[1,2-a]pyrimido[5,4-e]pyrimidin-5(6H)-one dihydrochloride] |
